{"source": "paper PMC9851200", "about": "“Multiparameter phenotypic screening for endogenous TFEB and TFE3 translocation identifies novel chemical series modulating lysosome function” (Autophagy, 2022)", "origin": "cited, not measured here", "parameters_in_all_cases": "method as in original PKIS2 published data", "key": {"[1]": {"target": "kinases (KINOMEscan panel) (Homo sapiens, UniProt P07333)", "sequence (P07333 20-972)": "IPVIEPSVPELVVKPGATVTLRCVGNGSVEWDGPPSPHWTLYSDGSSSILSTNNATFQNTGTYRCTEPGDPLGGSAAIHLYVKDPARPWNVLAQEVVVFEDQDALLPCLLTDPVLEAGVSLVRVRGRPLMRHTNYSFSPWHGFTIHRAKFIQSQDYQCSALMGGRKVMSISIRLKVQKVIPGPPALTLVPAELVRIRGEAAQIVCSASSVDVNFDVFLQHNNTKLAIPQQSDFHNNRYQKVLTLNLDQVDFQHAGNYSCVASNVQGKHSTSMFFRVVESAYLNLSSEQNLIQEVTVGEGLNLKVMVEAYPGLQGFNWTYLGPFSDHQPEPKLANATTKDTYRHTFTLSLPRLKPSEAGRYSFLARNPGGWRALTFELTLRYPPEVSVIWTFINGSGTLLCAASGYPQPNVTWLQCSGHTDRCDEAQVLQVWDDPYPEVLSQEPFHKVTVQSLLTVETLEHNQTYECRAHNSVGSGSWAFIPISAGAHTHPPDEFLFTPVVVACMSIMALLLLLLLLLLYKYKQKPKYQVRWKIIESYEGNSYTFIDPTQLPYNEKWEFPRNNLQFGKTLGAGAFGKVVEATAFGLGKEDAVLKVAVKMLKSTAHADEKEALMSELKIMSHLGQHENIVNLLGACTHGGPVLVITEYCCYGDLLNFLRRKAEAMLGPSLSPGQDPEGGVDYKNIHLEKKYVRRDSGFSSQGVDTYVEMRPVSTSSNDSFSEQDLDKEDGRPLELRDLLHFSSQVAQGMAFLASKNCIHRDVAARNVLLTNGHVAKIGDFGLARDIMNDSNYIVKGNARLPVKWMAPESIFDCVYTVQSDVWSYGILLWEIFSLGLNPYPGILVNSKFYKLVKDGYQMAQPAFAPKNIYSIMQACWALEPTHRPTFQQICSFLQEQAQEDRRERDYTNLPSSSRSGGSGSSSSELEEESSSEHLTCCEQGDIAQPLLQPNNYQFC", "details": "Published KINOMEscan; ref original PKIS2 published data; cited from earlier work"}, "[2]": {"target": "kinases (KINOMEscan panel) (Homo sapiens, UniProt O75914)", "sequence (O75914 whole entry)": "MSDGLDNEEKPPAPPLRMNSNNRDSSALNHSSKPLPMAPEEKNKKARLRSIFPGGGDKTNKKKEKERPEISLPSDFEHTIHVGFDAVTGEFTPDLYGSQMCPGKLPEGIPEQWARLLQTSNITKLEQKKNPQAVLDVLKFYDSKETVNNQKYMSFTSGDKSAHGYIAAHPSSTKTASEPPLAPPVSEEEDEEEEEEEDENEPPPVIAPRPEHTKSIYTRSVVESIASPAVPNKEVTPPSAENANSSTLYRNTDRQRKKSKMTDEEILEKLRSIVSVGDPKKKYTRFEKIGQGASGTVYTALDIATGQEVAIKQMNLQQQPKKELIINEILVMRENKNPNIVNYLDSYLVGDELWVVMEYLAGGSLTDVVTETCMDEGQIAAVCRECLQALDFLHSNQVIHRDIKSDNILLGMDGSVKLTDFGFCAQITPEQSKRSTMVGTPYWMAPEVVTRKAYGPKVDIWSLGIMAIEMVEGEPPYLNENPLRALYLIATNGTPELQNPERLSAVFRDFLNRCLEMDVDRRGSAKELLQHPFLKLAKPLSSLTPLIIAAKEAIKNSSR", "details": "Published KINOMEscan; ref original PKIS2 published data; cited from earlier work"}, "[3]": {"target": "kinases (KINOMEscan panel) (Homo sapiens, UniProt Q9Y6R4)", "sequence (Q9Y6R4 whole entry)": "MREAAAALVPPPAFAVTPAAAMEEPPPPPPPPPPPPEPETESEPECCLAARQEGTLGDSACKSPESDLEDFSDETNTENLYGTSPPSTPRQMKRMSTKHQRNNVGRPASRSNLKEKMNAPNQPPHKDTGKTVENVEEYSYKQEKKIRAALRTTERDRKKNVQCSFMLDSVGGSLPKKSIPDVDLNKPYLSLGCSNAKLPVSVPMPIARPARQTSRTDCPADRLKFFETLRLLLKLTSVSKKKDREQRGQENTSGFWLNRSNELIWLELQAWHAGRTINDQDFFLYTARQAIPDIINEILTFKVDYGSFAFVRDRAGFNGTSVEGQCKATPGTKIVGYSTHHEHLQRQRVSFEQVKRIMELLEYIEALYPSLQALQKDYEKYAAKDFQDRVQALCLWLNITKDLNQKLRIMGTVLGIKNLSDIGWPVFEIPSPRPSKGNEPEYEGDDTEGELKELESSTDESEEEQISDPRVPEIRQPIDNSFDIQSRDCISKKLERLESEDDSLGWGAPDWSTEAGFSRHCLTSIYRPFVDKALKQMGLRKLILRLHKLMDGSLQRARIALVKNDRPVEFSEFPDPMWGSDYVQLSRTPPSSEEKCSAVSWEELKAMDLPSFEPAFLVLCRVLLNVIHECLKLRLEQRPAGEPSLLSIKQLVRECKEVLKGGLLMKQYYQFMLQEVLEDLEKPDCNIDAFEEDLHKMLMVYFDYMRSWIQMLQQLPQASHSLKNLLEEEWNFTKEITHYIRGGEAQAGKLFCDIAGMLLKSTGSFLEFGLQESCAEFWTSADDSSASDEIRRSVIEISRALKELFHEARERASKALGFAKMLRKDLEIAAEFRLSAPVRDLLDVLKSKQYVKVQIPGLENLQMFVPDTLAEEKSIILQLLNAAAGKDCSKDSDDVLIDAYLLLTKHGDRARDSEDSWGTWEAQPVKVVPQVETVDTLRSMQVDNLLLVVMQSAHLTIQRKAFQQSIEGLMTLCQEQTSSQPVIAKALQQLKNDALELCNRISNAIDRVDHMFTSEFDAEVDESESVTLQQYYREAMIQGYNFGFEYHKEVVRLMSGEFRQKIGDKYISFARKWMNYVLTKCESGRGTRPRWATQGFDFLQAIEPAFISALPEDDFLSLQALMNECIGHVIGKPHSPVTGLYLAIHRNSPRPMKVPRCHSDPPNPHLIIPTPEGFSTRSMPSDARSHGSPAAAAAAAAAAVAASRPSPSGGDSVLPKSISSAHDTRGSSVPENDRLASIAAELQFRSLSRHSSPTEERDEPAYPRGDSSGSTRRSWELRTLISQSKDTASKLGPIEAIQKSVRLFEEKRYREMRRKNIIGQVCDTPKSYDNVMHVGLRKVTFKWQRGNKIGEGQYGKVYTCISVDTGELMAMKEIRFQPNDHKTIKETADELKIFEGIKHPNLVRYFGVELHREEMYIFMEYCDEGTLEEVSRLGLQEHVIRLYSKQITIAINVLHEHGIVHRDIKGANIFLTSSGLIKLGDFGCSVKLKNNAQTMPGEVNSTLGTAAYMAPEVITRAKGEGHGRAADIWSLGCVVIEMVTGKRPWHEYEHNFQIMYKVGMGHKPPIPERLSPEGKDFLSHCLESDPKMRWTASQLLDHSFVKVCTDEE", "details": "MAP3K4; Published KINOMEscan; ref original PKIS2 published data; cited from earlier work"}, "[4]": {"target": "kinases (KINOMEscan panel) (Homo sapiens, UniProt O00750)", "sequence (O00750 whole entry)": "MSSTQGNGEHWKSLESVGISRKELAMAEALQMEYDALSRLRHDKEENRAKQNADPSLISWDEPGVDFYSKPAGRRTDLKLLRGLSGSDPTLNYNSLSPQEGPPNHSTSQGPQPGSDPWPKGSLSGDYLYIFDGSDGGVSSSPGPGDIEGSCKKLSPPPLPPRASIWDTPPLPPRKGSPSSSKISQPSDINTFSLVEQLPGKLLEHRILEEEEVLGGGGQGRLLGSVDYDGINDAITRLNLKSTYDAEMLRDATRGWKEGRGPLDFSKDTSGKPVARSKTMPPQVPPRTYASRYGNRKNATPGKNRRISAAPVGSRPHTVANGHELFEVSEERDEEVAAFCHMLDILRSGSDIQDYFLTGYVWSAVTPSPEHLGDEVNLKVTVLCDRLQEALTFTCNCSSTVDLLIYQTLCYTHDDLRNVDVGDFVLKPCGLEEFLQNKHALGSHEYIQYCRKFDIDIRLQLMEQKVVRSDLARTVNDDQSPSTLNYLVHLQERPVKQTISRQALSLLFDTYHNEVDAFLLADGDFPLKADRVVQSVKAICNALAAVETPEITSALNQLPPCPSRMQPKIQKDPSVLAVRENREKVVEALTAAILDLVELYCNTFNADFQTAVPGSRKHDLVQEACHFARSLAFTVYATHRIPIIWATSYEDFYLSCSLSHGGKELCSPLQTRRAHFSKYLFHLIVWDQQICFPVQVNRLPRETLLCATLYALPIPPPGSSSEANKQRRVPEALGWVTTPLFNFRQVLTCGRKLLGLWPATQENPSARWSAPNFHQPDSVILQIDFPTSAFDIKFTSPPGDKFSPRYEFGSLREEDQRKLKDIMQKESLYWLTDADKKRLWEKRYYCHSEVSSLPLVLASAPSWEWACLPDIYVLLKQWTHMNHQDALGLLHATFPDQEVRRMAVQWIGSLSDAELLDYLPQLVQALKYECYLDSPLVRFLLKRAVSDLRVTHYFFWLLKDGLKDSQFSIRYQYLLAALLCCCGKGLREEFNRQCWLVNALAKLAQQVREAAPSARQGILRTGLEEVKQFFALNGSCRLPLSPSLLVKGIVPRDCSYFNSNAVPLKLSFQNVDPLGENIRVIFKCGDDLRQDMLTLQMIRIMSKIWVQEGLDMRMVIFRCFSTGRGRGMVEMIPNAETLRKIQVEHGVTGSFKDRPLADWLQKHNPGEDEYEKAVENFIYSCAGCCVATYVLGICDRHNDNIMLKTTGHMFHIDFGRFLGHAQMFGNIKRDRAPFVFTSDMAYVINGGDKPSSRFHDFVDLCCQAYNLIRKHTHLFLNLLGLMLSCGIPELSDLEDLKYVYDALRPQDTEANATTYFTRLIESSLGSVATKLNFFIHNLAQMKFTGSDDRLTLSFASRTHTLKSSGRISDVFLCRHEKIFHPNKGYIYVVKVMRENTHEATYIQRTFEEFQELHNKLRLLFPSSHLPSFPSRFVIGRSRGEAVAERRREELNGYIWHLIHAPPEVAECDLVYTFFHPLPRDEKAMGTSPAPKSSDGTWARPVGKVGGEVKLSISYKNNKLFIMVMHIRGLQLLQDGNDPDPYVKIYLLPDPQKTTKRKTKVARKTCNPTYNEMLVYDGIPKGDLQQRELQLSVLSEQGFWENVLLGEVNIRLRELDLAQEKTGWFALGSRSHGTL", "details": "PIK3C2B; Published KINOMEscan; ref original PKIS2 published data; cited from earlier work"}, "[5]": {"target": "kinases (KINOMEscan panel) (Homo sapiens, UniProt Q86UE8)", "details": "kinase TLK2; Published KINOMEscan; ref original PKIS2 published data; cited from earlier work"}, "[6]": {"target": "T1, kinases (KINOMEscan panel) (Homo sapiens, UniProt Q9C098)", "T1 sequence (Q9C098 1-648)": "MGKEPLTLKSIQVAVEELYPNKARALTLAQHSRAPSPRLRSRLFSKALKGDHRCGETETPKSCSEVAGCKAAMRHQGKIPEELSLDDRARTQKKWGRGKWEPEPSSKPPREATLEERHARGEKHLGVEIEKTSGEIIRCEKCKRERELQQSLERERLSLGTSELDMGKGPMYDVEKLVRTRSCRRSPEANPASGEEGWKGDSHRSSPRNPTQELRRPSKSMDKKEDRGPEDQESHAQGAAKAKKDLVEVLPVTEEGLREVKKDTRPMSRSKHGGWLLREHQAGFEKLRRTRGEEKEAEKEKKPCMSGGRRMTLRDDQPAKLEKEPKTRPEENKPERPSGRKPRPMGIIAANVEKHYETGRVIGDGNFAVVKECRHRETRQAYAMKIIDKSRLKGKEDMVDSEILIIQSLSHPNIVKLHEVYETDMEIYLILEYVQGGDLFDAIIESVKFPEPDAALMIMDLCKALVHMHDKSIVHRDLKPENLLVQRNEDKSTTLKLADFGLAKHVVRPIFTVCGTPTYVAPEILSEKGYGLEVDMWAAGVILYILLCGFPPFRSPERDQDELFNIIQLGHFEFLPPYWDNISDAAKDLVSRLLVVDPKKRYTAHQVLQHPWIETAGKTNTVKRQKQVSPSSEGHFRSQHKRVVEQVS", "details": "kinase DCLK3; Published KINOMEscan; ref original PKIS2 published data; cited from earlier work"}, "[7]": {"target": "kinases (KINOMEscan panel) (Homo sapiens, UniProt Q9UKE5)", "details": "TNIK; Published KINOMEscan; ref original PKIS2 published data; cited from earlier work"}, "[8]": {"target": "T2, kinases (KINOMEscan panel) (Homo sapiens, UniProt Q02156)", "T2 sequence (Q02156 1-737)": "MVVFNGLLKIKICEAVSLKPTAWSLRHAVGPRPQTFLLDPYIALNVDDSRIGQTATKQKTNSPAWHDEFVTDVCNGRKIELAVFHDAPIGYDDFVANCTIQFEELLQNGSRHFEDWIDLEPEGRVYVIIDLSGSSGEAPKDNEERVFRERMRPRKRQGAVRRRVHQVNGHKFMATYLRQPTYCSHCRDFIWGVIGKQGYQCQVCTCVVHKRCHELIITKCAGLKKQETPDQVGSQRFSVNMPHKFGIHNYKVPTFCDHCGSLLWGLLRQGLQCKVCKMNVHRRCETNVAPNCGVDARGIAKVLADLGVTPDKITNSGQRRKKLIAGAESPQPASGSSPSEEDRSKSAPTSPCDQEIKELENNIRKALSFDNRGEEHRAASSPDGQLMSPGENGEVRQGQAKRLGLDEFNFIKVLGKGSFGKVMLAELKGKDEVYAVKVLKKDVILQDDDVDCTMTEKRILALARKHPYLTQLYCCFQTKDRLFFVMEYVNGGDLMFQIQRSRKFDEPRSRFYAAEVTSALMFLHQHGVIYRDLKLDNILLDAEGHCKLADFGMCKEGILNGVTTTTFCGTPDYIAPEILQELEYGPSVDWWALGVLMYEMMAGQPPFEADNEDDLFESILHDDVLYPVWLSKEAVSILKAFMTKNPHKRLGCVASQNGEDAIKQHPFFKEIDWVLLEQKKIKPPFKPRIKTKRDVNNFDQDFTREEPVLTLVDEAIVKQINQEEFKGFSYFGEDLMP", "details": "kinase PRKCE; Published KINOMEscan; ref original PKIS2 published data; cited from earlier work"}, "[9]": {"target": "kinases (KINOMEscan panel) (Homo sapiens, UniProt Q13554)", "details": "kinase CAMK2B; Published KINOMEscan; ref original PKIS2 published data; cited from earlier work"}, "[10]": {"target": "kinases (KINOMEscan panel) (Homo sapiens, UniProt P51957)", "details": "kinase NEK4; Published KINOMEscan; ref original PKIS2 published data; cited from earlier work"}}}
{"smiles": "Cc1cccc(-c2nc(Nc3ccncc3)c3ccccc3n2)n1", "note": "[NK215]", "values": [{"measurement": "KINOMEscan CSF1R", "setting": "[1]", "value": 0}, {"measurement": "KINOMEscan CSF1R-autoinhibited", "setting": "[1]", "value": 0}, {"measurement": "KINOMEscan PAK3", "setting": "[2]", "value": 0}, {"measurement": "KINOMEscan MAP3K4", "setting": "[3]", "value": 16}, {"measurement": "KINOMEscan PIK3C2B", "setting": "[4]", "value": 0}, {"measurement": "KINOMEscan TLK2", "setting": "[5]", "value": 0}, {"measurement": "KINOMEscan DCLK3", "setting": "[6]", "value": 21}, {"measurement": "KINOMEscan TNIK", "setting": "[7]", "value": 29}, {"measurement": "KINOMEscan PRKCE", "setting": "[8]", "value": 0}, {"measurement": "KINOMEscan CAMK2B", "setting": "[9]", "value": 0}, {"measurement": "KINOMEscan NEK4", "setting": "[10]", "value": 0}]}
